Experimental data: patent US20180273534A1, “PYRAZOLOPYRIDINE SULFONAMIDES AS NEMATICIDES” (BAYER CROPSCIENCE AKTIENGESELLSCHAFT, priority 2014, published 2018)
“And” between values parts separate entries of the source, which are not always exact repeats. Identical values can stand only once.

These molecules were tested on Meloidogyne incognita (assay: Meloidogyne incognita test (sand, salad seedlings, gall formation)). Conditions: application rate 20 ppm, after 14 days, 100% = no galls, 0% = galls equal to untreated control.
Type: in vivo
Procedure: Meloidogyne Incognita—Test
Solvent: 125.0 parts by weight of acetone
To produce a suitable preparation of active compound, 1 part by weight of active compound is mixed with the stated amount of solvent, and the concentrate is diluted with water to the desired concentration.
Vessels are filled with sand, a solution of the active ingredient, a suspension containing eggs and larvae of the southern root-knot nematode (Meloidogyne incognita) and salad seeds. The salad seeds germinate and the seedlings grow. Galls develop in the roots.
After 14 days the nematicidal activity is determined on the basis of the percentage of gall formation. 100% means no galls were found and 0% means the number of galls found on the roots of the treated plants was equal to that in untreated control plants.
`O=C(NS(=O)(=O)c1ccccc1Cl)c1cc2cc(C(F)(F)F)ccn2n1` [Example I-1, N-[(2-chlorophenyl)sulfonyl]-5-(trifluoromethyl)pyrazolo[1,5-a]pyridine-2-carboxamide] was tested, and the “nematicidal activity on the basis of the percentage of gall formation” value was 100%.
For `O=C(NS(=O)(=O)c1ncc(C(F)(F)F)cc1Cl)c1cc2c(Cl)cc(C(F)(F)F)cn2n1` [Example I-2], the “nematicidal activity on the basis of the percentage of gall formation” value was 90%.
`COc1ccc(Cl)c(S(=O)(=O)NC(=O)c2cc3c(Cl)cc(C(F)(F)F)cn3n2)c1` [Example I-3] was tested, and the “nematicidal activity on the basis of the percentage of gall formation” value was 100% and 90%.
In the case of `O=C(NS(=O)(=O)c1ccccc1C(F)(F)F)c1cc2c(Cl)cc(C(F)(F)F)cn2n1` [Example I-4], the “nematicidal activity on the basis of the percentage of gall formation” value is reported as 90%.
With `O=C(NS(=O)(=O)c1ccccc1OC(F)(F)F)c1cc2c(Cl)cc(C(F)(F)F)cn2n1` [Example I-5] the “nematicidal activity on the basis of the percentage of gall formation” value was 90%.
In the case of `COc1ccccc1S(=O)(=O)NC(=O)c1cc2c(Cl)cc(C(F)(F)F)cn2n1` [Example I-8], the “nematicidal activity on the basis of the percentage of gall formation” value is reported as 90%.
With `O=C(NS(=O)(=O)c1ccc(Cl)cc1)c1cc2c(Cl)cc(C(F)(F)F)cn2n1` [Example I-9] the “nematicidal activity on the basis of the percentage of gall formation” value was 100% and 90%.
For `Cc1ccccc1S(=O)(=O)NC(=O)c1cc2c(Cl)cc(C(F)(F)F)cn2n1` [Example I-10], the “nematicidal activity on the basis of the percentage of gall formation” value was 90%.
For `O=C(NS(=O)(=O)c1cccc(Cl)c1)c1cc2c(Cl)cc(C(F)(F)F)cn2n1` [Example I-12], the “nematicidal activity on the basis of the percentage of gall formation” value was 90%.
`O=C(NS(=O)(=O)c1cc2c(cc1Cl)OC(F)(F)O2)c1cc2c(Cl)cc(C(F)(F)F)cn2n1` [Example I-14] was tested, and the “nematicidal activity on the basis of the percentage of gall formation” value was 90%.
With `CCS(=O)(=O)NC(=O)c1cc2c(Cl)cc(C(F)(F)F)cn2n1` [Example I-16] the “nematicidal activity on the basis of the percentage of gall formation” value was 100%.
In the case of `O=C(NS(=O)(=O)C1CC1)c1cc2c(Cl)cc(C(F)(F)F)cn2n1` [Example I-17], the “nematicidal activity on the basis of the percentage of gall formation” value is reported as 100%.
For `O=C(NS(=O)(=O)c1c(Cl)cccc1Cl)c1cc2c(Cl)cc(C(F)(F)F)cn2n1` [Example I-18], the “nematicidal activity on the basis of the percentage of gall formation” value was 100%.
For `O=C(NS(=O)(=O)c1ccccc1Cl)c1cc2cc(C(F)(F)F)cc(Cl)n2n1` [Example I-19], the “nematicidal activity on the basis of the percentage of gall formation” value was 100%.
`O=C(NS(=O)(=O)c1ccc(Cl)cc1)c1cc2cc(C(F)(F)F)cc(Cl)n2n1` [Example I-20] was tested, and the “nematicidal activity on the basis of the percentage of gall formation” value was 90%.
For `O=C(NS(=O)(=O)c1c(Cl)cccc1Cl)c1cc2cc(C(F)(F)F)cc(Cl)n2n1` [Example I-21], the “nematicidal activity on the basis of the percentage of gall formation” value was 100%.
With `O=C(NS(=O)(=O)c1cc(Cl)ccc1Cl)c1cc2cc(C(F)(F)F)cc(Cl)n2n1` [Example I-22] the “nematicidal activity on the basis of the percentage of gall formation” value was 100%.
In the case of `COc1ccc(Cl)c(S(=O)(=O)NC(=O)c2cc3cc(C(F)(F)F)cc(Cl)n3n2)c1` [Example I-23], the “nematicidal activity on the basis of the percentage of gall formation” value is reported as 100%.
With `O=C(NS(=O)(=O)c1c(Cl)cccc1Cl)c1cc2cc(C(F)(F)F)ccn2n1` [Example I-25] the “nematicidal activity on the basis of the percentage of gall formation” value was 100%.
For `O=C(NS(=O)(=O)c1cc(Cl)ccc1Cl)c1cc2cc(C(F)(F)F)ccn2n1` [Example I-26], the “nematicidal activity on the basis of the percentage of gall formation” value was 100%.
With `COc1ccc(Cl)c(S(=O)(=O)NC(=O)c2cc3cc(C(F)(F)F)ccn3n2)c1` [Example I-27] the “nematicidal activity on the basis of the percentage of gall formation” value was 100%.
For `O=C(NS(=O)(=O)C1CC1)c1cc2cc(C(F)(F)F)ccn2n1` [Example I-29], the “nematicidal activity on the basis of the percentage of gall formation” value was 90%.
In the case of `O=C(NS(=O)(=O)c1cccc(Cl)c1)c1cc2cc(C(F)(F)F)cc(Cl)n2n1` [Example I-30], the “nematicidal activity on the basis of the percentage of gall formation” value is reported as 100% and 90%.
